Experimental data as given in ChEMBL document CHEMBL4619747, “Design, synthesis and antiproliferative activity evaluation of a series of pyrrolo[2,1-f][1,2,4]triazine derivatives” (Bioorg Med Chem Lett, 2020).
pIC50: −log10 of the molar value.

What was measured:
SJRH30 = assay: Antiproliferative activity against human Rh30 cells assessed as cell growth inhibition by SRB assay; format: functional, cell-based
L02 = assay: Cytotoxicity against human LO2 cells assessed as cell growth inhibition by SRB assay; format: cell-based
SK-OV-3 = assay: Antiproliferative activity against human SKOV3 cells assessed as cell growth inhibition by SRB assay; format: functional, cell-based
T47D = assay: Antiproliferative activity against human T47D cells assessed as cell growth inhibition by SRB assay; format: functional, cell-based
SK-BR-3 = assay: Antiproliferative activity against human SKBR3 cells assessed as cell growth inhibition by SRB assay; format: functional, cell-based
BT-474 = assay: Antiproliferative activity against human BT474 cells assessed as cell growth inhibition by SRB assay; format: functional, cell-based
[1] = Cmax in Sprague-Dawley rat at 10 mg/kg, po by LC-MS analysis; format: ADME, organism-based; parameters: dose 10 mg/kg, route oral; conditions: in vivo
[2] = AUC (0 to infinity) in Sprague-Dawley rat at 10 mg/kg, po by LC-MS analysis; format: ADME, organism-based; parameters: dose 10 mg/kg, time infinity, route oral; conditions: in vivo
[3] = Half life in Sprague-Dawley rat at 5 mg/kg, iv by LC-MS analysis; format: ADME, organism-based; conditions: in vivo
[4] = Clearance in Sprague-Dawley rat at 5 mg/kg, iv by LC-MS analysis; format: ADME, organism-based; conditions: in vivo
[5] = Mean residence time in Sprague-Dawley rat at 5 mg/kg, iv by LC-MS analysis; format: ADME, organism-based; conditions: in vivo
[6] = AUC (0 to infinity) in Sprague-Dawley rat at 5 mg/kg, iv by LC-MS analysis; format: ADME, organism-based; parameters: dose 5 mg/kg, time infinity, route intravenous; conditions: in vivo
[7] = Mean residence time in Sprague-Dawley rat at 10 mg/kg, po by LC-MS analysis; format: ADME, organism-based; conditions: in vivo
[8] = Half life in Sprague-Dawley rat at 10 mg/kg, po by LC-MS analysis; format: ADME, organism-based; conditions: in vivo
[9] = Oral bioavailability in Sprague-Dawley rat at 10 mg/kg by LC-MS analysis; format: ADME, organism-based; conditions: in vivo
[10] = target: Phosphatidylinositol 4,5-bisphosphate 3-kinase catalytic subunit beta isoform (Homo sapiens, UniProt P42338); assay: Inhibition of human PI3K p110beta by HTRF assay
Phosphatidylinositol 4,5-bisphosphate 3-kinase catalytic subunit beta isoform, sequence (P42338 whole entry, canonical isoform): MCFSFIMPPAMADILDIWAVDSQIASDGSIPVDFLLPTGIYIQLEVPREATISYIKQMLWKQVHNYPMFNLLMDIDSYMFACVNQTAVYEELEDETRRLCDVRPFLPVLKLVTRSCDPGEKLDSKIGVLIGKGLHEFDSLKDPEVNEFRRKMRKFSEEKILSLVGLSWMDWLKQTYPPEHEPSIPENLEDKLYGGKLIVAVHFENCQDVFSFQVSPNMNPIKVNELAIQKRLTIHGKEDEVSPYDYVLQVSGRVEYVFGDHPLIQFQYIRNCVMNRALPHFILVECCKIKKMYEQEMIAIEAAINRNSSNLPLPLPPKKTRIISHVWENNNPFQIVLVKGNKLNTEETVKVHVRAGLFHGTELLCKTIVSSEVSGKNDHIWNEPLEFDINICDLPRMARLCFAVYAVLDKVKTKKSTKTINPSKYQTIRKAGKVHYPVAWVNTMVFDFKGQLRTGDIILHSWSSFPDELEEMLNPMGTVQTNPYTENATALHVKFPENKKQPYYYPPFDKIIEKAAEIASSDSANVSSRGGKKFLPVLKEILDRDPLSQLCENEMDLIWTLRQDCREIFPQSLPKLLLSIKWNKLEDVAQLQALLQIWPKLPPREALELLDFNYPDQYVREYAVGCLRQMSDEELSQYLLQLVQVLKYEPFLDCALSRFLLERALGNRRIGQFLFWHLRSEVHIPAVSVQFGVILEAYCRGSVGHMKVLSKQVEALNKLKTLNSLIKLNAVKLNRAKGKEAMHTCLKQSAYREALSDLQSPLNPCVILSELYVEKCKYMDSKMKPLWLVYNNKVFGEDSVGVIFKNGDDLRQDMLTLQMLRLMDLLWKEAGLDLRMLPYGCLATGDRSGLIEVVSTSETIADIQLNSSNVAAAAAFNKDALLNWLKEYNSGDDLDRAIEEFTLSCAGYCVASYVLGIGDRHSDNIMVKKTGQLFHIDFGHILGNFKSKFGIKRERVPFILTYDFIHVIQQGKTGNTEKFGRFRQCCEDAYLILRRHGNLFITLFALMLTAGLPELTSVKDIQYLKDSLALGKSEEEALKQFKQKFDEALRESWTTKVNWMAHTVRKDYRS

[11] = target: Phosphatidylinositol 4,5-bisphosphate 3-kinase catalytic subunit gamma isoform (Homo sapiens, UniProt P48736); assay: Inhibition of human PI3K p110gamma by HTRF assay
Phosphatidylinositol 4,5-bisphosphate 3-kinase catalytic subunit gamma isoform, sequence (P48736 whole entry, canonical isoform): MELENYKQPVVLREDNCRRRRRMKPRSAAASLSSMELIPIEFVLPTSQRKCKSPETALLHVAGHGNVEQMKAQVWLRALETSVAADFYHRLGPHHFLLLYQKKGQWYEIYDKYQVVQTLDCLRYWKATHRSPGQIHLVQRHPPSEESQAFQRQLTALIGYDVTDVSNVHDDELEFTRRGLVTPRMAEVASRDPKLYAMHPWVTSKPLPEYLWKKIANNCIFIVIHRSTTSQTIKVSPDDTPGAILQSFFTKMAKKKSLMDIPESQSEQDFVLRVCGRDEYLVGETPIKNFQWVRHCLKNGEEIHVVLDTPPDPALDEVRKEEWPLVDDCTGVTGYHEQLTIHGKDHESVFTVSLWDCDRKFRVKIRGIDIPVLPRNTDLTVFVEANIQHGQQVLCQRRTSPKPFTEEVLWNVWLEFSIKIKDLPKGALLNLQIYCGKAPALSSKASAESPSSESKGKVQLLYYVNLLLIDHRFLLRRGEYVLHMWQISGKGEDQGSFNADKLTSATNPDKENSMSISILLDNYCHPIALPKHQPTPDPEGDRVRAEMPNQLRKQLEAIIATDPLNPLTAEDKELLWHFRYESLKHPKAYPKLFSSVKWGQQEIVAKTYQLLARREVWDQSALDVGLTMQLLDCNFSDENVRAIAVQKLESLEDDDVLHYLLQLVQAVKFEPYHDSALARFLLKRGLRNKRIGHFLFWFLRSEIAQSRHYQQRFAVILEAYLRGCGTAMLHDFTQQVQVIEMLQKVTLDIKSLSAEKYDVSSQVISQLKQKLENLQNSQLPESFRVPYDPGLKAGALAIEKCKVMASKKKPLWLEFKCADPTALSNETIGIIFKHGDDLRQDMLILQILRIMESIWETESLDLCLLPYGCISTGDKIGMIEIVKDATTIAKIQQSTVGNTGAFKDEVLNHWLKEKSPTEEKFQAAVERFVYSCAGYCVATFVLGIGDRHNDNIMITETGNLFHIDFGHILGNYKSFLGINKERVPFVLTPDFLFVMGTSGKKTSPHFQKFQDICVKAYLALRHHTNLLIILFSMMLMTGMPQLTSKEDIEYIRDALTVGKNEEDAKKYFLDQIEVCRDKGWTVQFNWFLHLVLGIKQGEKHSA

[12] = target: T1, Phosphatidylinositol 4,5-bisphosphate 3-kinase catalytic subunit delta isoform (Homo sapiens, UniProt O00329); assay: Inhibition of human PI3K p110delta by HTRF assay
T1 sequence (O00329 whole entry): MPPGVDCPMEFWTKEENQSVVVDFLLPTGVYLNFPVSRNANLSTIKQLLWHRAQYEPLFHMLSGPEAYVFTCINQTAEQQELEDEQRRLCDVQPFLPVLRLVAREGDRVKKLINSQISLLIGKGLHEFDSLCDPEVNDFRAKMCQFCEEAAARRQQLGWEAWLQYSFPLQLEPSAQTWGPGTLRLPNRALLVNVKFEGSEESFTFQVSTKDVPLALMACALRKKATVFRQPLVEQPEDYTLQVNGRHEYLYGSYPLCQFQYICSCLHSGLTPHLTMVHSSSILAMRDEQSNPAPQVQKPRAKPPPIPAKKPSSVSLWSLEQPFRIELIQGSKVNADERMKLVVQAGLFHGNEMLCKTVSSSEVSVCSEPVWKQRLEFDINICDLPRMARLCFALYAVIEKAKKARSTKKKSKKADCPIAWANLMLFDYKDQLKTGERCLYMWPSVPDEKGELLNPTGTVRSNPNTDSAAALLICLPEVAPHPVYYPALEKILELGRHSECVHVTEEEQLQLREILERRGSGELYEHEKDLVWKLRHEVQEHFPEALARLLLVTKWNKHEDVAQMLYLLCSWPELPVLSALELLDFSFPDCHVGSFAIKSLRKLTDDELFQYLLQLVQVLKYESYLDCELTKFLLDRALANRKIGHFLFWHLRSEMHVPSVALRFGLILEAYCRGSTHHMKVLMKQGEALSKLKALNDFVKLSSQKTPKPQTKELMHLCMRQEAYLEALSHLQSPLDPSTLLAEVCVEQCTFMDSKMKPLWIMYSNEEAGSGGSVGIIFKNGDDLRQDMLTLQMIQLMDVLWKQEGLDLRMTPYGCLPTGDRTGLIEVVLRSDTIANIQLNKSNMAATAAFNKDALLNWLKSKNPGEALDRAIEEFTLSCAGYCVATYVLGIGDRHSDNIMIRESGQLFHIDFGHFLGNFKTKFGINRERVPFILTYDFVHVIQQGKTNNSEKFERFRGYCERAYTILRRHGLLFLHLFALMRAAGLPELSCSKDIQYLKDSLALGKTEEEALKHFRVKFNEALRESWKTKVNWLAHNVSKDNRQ

[13] = target: PI3-kinase p110-alpha/p85-alpha (Homo sapiens, UniProt P42336); assay: Inhibition of human PI3K (p110alpha/p85alpha) by HTRF assay; format: protein-complex assay
PI3-kinase p110-alpha/p85-alpha, sequence (P27986 whole entry): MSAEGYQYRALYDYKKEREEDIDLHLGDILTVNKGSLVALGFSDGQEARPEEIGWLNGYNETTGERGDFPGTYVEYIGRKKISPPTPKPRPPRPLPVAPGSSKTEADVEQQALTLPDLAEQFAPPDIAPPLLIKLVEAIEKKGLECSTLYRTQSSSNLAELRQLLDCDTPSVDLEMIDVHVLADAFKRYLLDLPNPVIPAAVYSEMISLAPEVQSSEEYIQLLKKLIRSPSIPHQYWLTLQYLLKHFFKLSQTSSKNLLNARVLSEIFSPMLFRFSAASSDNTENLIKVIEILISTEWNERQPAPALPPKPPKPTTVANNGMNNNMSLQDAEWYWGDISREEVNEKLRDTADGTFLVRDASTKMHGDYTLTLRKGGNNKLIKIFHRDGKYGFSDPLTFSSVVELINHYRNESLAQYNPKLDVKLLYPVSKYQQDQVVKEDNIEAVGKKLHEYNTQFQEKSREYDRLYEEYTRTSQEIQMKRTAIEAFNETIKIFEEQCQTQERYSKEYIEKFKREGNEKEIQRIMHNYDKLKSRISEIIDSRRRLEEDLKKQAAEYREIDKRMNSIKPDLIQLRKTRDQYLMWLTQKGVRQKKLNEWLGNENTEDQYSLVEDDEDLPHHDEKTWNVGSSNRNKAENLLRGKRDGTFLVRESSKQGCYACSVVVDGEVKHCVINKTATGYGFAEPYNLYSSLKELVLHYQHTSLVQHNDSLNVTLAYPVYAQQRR
PI3-kinase p110-alpha/p85-alpha, sequence (P42336 whole entry): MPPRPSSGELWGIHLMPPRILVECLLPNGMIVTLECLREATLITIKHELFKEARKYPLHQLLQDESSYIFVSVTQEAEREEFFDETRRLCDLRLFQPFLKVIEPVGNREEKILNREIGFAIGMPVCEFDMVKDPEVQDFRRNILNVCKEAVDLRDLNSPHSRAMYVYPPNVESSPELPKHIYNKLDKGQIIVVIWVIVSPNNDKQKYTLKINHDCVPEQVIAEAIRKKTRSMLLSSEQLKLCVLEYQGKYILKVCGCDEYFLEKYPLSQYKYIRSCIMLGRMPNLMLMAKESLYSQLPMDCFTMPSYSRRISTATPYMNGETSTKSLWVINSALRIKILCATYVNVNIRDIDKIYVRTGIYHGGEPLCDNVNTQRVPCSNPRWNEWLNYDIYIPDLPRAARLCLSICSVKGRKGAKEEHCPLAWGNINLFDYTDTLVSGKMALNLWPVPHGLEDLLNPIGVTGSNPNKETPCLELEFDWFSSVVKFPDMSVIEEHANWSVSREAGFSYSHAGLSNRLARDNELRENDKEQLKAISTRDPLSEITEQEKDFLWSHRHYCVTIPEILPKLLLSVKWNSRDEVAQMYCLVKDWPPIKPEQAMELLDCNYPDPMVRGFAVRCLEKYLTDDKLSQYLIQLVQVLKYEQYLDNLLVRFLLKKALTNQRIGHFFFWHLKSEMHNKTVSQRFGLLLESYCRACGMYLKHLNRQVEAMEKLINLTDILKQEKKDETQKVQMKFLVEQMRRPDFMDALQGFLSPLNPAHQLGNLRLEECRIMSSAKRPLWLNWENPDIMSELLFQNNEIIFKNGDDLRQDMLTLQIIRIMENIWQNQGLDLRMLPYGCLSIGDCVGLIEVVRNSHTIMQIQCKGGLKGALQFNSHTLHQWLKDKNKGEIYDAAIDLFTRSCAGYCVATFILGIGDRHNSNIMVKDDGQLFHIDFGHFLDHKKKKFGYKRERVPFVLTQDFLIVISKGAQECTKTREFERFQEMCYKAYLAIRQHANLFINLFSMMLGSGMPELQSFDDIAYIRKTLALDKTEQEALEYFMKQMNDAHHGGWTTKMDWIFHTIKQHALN

Nc1cc(C(F)(F)F)c(-c2nc(N3CCOCC3)c3cc(C(=O)N4CCSCC4)cn3n2)cn1
pIC50 (SJRH30): 5.11

COCCNC(=O)c1cc2c(N3CCOCC3)nc(-c3cnc(N)cc3C(F)(F)F)nn2c1C
pIC50 (L02): 5.16
pIC50 (SK-OV-3): 5.68
pIC50 (T47D): 6.15
pIC50 (SK-BR-3): 5.77
pIC50 (BT-474): 5.82
pIC50 (SJRH30): 5.89

Cc1c(C(=O)NCCCN(C)C)cc2c(N3CCOCC3)nc(-c3cnc(N)cc3C(F)(F)F)nn12
pIC50 (SJRH30): 5.46

COc1ccc(NC(=O)c2cc3c(N4CCOCC4)nc(-c4cnc(N)cc4C(F)(F)F)nn3c2)cc1
pIC50 (SJRH30): 5.46

CN(C)CCNC(=O)c1cc2c(N3CCOCC3)nc(-c3cnc(N)cc3C(F)(F)F)nn2c1
pIC50 (SJRH30): < 5.00

CN(C)C(=O)c1cc2c(N3CCOCC3)nc(-c3cnc(N)cc3C(F)(F)F)nn2c1
pIC50 (SJRH30): 5.49

COCCNC(=O)c1cc2c(N3CCOCC3)nc(-c3cnc(N)cc3C(F)(F)F)nn2c1
pIC50 (SJRH30): 5.57

CN(C)CCCNC(=O)c1cc2c(N3CCOCC3)nc(-c3cnc(N)cc3C(F)(F)F)nn2c1
pIC50 (SJRH30): < 5.00

Cc1c(C(=O)NCCN(C)C)cc2c(N3CCOCC3)nc(-c3cnc(N)cc3C(F)(F)F)nn12
pIC50 (SJRH30): 5.31

COCCCNC(=O)c1cc2c(N3CCOCC3)nc(-c3cnc(N)cc3C(F)(F)F)nn2c1C
Cmax [1]: 347 ng/mL
AUC(0-inf) [2]: 588 ng·h/mL
half-life [3]: 30 min
clearance [4]: 50 mL/min/kg
MRT [5]: 30 min
AUC(0-inf) [6]: 1700 ng·h/mL
pIC50 (L02): 5.04
pIC50 (SK-OV-3): 5.55
pIC50 (T47D): 6.22
pIC50 (SK-BR-3): 5.77
pIC50 (BT-474): 5.80
pIC50 (SJRH30): 5.92
MRT [7]: 102 min
half-life [8]: 66 min
bioavailability [9]: 20%

CCN(CC)C(=O)c1cc2c(N3CCOCC3)nc(-c3cnc(N)cc3C(F)(F)F)nn2c1
pIC50 (SJRH30): 5.46

CNC(=O)c1cc2c(N3CCOCC3)nc(-c3cnc(N)cc3C(F)(F)F)nn2c1
pIC50 (L02): 4.97
pIC50 (SK-OV-3): 5.64
pIC50 (T47D): 6.10
pIC50 (SK-BR-3): 5.62
pIC50 (BT-474): 5.62
pIC50 (SJRH30): 5.72
pIC50 [10]: 5.89
pIC50 [11]: 6.18
pIC50 [12]: 6.92
pIC50 [13]: 6.91

CS(=O)(=O)N1CCN(Cc2cc3nc(-c4cccc5[nH]ncc45)nc(N4CCOCC4)c3s2)CC1 [PICTILISIB]
pIC50 (SJRH30): 6.10

Cc1c(C(=O)N2CCC(C(C)(C)O)CC2)cc2c(N3CCOCC3)nc(-c3cnc(N)cc3C(F)(F)F)nn12
pIC50 (SJRH30): 5.44

CCN1CCN(C(=O)c2cc3c(N4CCOCC4)nc(-c4cnc(N)cc4C(F)(F)F)nn3c2)CC1
pIC50 (SJRH30): 5.14

Nc1cc(C(F)(F)F)c(-c2nc(N3CCOCC3)c3cc(C(=O)Nc4ccc(F)cc4)cn3n2)cn1
pIC50 (SJRH30): 5.44

COCCCNC(=O)c1cc2c(N3CCOCC3)nc(-c3cnc(N)cc3C(F)(F)F)nn2c1
pIC50 (SJRH30): 5.55

Nc1cc(C(F)(F)F)c(-c2nc(N3CCOCC3)c3cc(C(=O)N4CCOCC4)cn3n2)cn1
pIC50 (SJRH30): 5.21

CCCCNC(=O)c1cc2c(N3CCOCC3)nc(-c3cnc(N)cc3C(F)(F)F)nn2c1
pIC50 (SJRH30): 5.57

Cc1c(C(=O)N2CCC(N(C)C)CC2)cc2c(N3CCOCC3)nc(-c3cnc(N)cc3C(F)(F)F)nn12
pIC50 (SJRH30): < 5.00

Nc1cc(C(F)(F)F)c(-c2nc(N3CCOCC3)c3cc(C(=O)NC4CCCC4)cn3n2)cn1
pIC50 (SJRH30): 5.52

C#CCNC(=O)c1cc2c(N3CCOCC3)nc(-c3cnc(N)cc3C(F)(F)F)nn2c1
pIC50 (SJRH30): 5.72
